Measured values reported in ChEMBL document CHEMBL1134276, “Synthesis and antibacterial activity of acylides (3-O-acyl-erythromycin derivatives): a novel class of macrolide antibiotics” (2001).
In brackets after ≈: the same amount, converted by molar mass.

Columns and labels:
Staphylococcus aureus [1] = assay: In vitro antibacterial activity against erythromycin-susceptible Staphylococcus aureus 209P-JC strain; assay type: functional
Staphylococcus aureus [2] = assay: In vitro antibacterial activity against constitutively MLS B resistant Staphylococcus aureus SR138 strain encoded by an ermA gene; assay type: functional
Staphylococcus aureus [3] = assay: In vitro antibacterial activity against an inducibly MLS B resistant Staphylococcus aureus B1 strain; assay type: functional
Streptococcus pneumoniae [4] = assay: In vitro antibacterial activity against erythromycin efflux resistant Streptococcus pneumoniae 210 strain; assay type: functional
Streptococcus pneumoniae [5] = assay: In vitro antibacterial activity against erythromycin-susceptible Streptococcus pneumoniae IID553 strain; assay type: functional
Enterococcus faecium [6] = assay: In vitro antibacterial activity against erythromycin-susceptible Enterococcus faecium ATCC 19434 strain; assay type: functional
Haemophilus influenzae = assay: In vitro antibacterial activity against erythromycin-susceptible Hemophilus influenzae ATCC 43095 strain; assay type: functional
Streptococcus pneumoniae [7] = assay: In vitro antibacterial activity against MLS-B resistant Streptococcus pneumoniae 221 strain encoded by an erm B gene; assay type: functional
Staphylococcus aureus [8] = assay: In vivo minimum inhibitory concentration against erythromycin susceptible Staphylococcus aureus Smith strain by mouse protection test; assay type: functional
Mus musculus [9] = assay: In vivo effective dose against erythromycin susceptible Staphylococcus aureus strain Smith by mouse protection test; assay type: functional
Enterococcus faecalis [10] = assay: In vitro antibacterial activity against erythromycin-susceptible Enterococcus faecalis ATCC 29212 strain; assay type: functional
Mus musculus [11] = assay: (§1) In vivo effective dose against erythromycin susceptible Staphylococcus aureus Smith strain by mouse protection test(95% confidence limits); assay type: functional
Staphylococcus aureus [12] = assay: In vivo Minimum inhibitory conc against erythromycin susceptible Staphylococcus aureus Smith strain by mouse protection test; assay type: functional
Staphylococcus aureus [13] = assay: In vitro antibacterial activity against constitutively MLS B resistant Staphylococcus aureus SR138 strain; assay type: functional
Staphylococcus aureus [14] = assay: In vitro antibacterial activity against inducibly MLS B resistant Staphylococcus aureus B1 strain; assay type: functional
Enterococcus faecium [15] = assay: In vitro antibacterial activity against erythromycin-susceptible Enterococcus faecium ATCC 19434 strain
Staphylococcus aureus [16] = assay: In vivo Minimum inhibitory conc against erythromycin susceptible Staphylococcus aureus strain Smith by mouse protection test; assay type: functional
Streptococcus pneumoniae [17] = assay: In vitro antibacterial activity against constitutively MLS B resistant […] strain encoded by an ermB gene; assay type: functional
Enterococcus faecium [18] = assay: In vitro antibacterial activity against erythromycin-susceptible Enterococcus faecium ATCC 29212 strain; assay type: functional
Staphylococcus aureus [19] = assay: as §1; assay type: functional
Streptococcus pneumoniae [20] = assay: In vitro antibacterial activity against erythromycin- susceptible Streptococcus pneumoniae IID553 strain; assay type: functional
Enterococcus faecalis [21] = assay: In vitro antibacterial activity against erythromycin-susceptible Enterococcus faecalis ATCC 19434 strain; assay type: functional

Structure (SMILES): CC[C@H]1OC(=O)[C@H](C)[C@@H](OS(=O)(=O)Cc2ccccc2)[C@H](C)[C@@H](OC2O[C@H](C)C[C@H](N(C)C)C2O)[C@@](C)(OC)C[C@@H](C)C(=O)[C@H](C)[C@@H](O)[C@]1(C)O (stereo partly specified)
- MIC (Staphylococcus aureus [1]): > 100 µg/mL

Structure (SMILES): CC[C@H]1OC(=O)[C@H](C)[C@@H](OC(C)=O)[C@H](C)[C@@H](OC2O[C@H](C)C[C@H](N(C)C)C2O)[C@@](C)(OC)C[C@@H](C)C(=O)[C@H](C)[C@@H](O)[C@]1(C)O (stereo partly specified)
- MIC (Staphylococcus aureus [2]): > 100 µg/mL
- MIC (Staphylococcus aureus [1]): 50 µg/mL (≈ 79.1 µM)
- MIC (Staphylococcus aureus [3]): > 100 µg/mL

Structure (SMILES): CC[C@H]1OC(=O)[C@H](C)[C@@H](OC(=O)CC#N)[C@H](C)[C@@H](OC2O[C@H](C)C[C@H](N(C)C)C2O)[C@@](C)(OC)C[C@@H](C)C(=O)[C@H](C)[C@@H](O)[C@]1(C)O (stereo partly specified)
- MIC (Staphylococcus aureus [2]): > 100 µg/mL
- MIC (Staphylococcus aureus [1]): 25 µg/mL (≈ 38.1 µM)
- MIC (Staphylococcus aureus [3]): > 100 µg/mL

Structure (SMILES): CC[C@H]1OC(=O)[C@H](C)[C@@H](OC(=O)CN)[C@H](C)[C@@H](OC2O[C@H](C)C[C@H](N(C)C)C2O)[C@@](C)(OC)C[C@@H](C)C(=O)[C@H](C)[C@@H](O)[C@]1(C)O (stereo partly specified)
- MIC (Staphylococcus aureus [2]): > 100 µg/mL
- MIC (Staphylococcus aureus [1]): 12.5 µg/mL (≈ 19.3 µM)
- MIC (Staphylococcus aureus [3]): > 100 µg/mL

Structure (SMILES): CC[C@H]1OC(=O)[C@H](C)[C@@H](OC(=O)CNC(=O)OCc2ccccc2)[C@H](C)[C@@H](OC2O[C@H](C)C[C@H](N(C)C)C2O)[C@@](C)(OC)C[C@@H](C)C(=O)[C@H](C)[C@@H](O)[C@]1(C)O (stereo partly specified)
- MIC (Staphylococcus aureus [2]): > 100 µg/mL
- MIC (Staphylococcus aureus [1]): 3.13 µg/mL (≈ 4.01 µM)
- MIC (Staphylococcus aureus [3]): > 100 µg/mL

Structure (SMILES): CC[C@H]1OC(=O)[C@H](C)[C@@H](OC(=O)c2ccc([N+](=O)[O-])cc2)[C@H](C)[C@@H](OC2O[C@H](C)C[C@H](N(C)C)C2O)[C@@](C)(OC)C[C@@H](C)C(=O)[C@H](C)[C@@H](O)[C@]1(C)O (stereo partly specified)
- MIC (Staphylococcus aureus [2]): > 100 µg/mL
- MIC (Staphylococcus aureus [1]): 50 µg/mL (≈ 67.7 µM)
- MIC (Staphylococcus aureus [3]): > 100 µg/mL

Structure (SMILES): CC[C@H]1OC(=O)[C@H](C)[C@@H](OC(=O)Cc2ccccc2)[C@H](C)[C@@H](O[C@@H]2O[C@H](C)C[C@H](N(C)C)[C@H]2O)[C@@](C)(OC)C[C@@H](C)C(=O)[C@H](C)[C@@H](O)[C@]1(C)O
- MIC (Staphylococcus aureus [2]): > 100 µg/mL
- MIC (Staphylococcus aureus [1]): 0.78 µg/mL (≈ 1.1 µM)
- MIC (Staphylococcus aureus [3]): > 100 µg/mL

Structure (SMILES): CC[C@H]1OC(=O)[C@H](C)[C@@H](OC2CCCCO2)[C@H](C)[C@@H](OC2O[C@H](C)C[C@H](N(C)C)C2O)[C@@](C)(OC)C[C@@H](C)C(=O)[C@H](C)[C@@H](O)[C@]1(C)O (stereo partly specified)
- MIC (Staphylococcus aureus [2]): > 100 µg/mL
- MIC (Staphylococcus aureus [1]): 12.5 µg/mL (≈ 18.5 µM)
- MIC (Staphylococcus aureus [3]): > 100 µg/mL

Structure (SMILES): CC[C@H]1OC(=O)[C@H](C)[C@@H](OC(=O)CNC(=O)OC(C)(C)C)[C@H](C)[C@@H](OC2O[C@H](C)C[C@H](N(C)C)C2O)[C@@](C)(OC)C[C@@H](C)C(=O)[C@H](C)[C@@H](O)[C@]1(C)O (stereo partly specified)
- MIC (Staphylococcus aureus [2]): > 100 µg/mL
- MIC (Staphylococcus aureus [1]): 12.5 µg/mL (≈ 16.7 µM)
- MIC (Staphylococcus aureus [3]): > 100 µg/mL

Structure (SMILES): CC[C@H]1OC(=O)[C@H](C)[C@@H](O)[C@H](C)[C@@H](OC2O[C@H](C)C[C@H](N(C)C)C2O)[C@@](C)(OC)C[C@@H](C)C(=O)[C@H](C)[C@@H](O)[C@]1(C)O (stereo partly specified)
- MIC (Staphylococcus aureus [1]): > 100 µg/mL

Structure (SMILES): CC[C@H]1OC(=O)[C@H](C)[C@@H](OC(=O)Cc2ccc([N+](=O)[O-])cc2)[C@H](C)[C@@H](O[C@@H]2O[C@H](C)C[C@H](N(C)C)[C@H]2O)[C@@](C)(OC)C[C@@H](C)C(=O)[C@H](C)[C@@H](O)[C@]1(C)O
- MIC (Streptococcus pneumoniae [4]): 0.2 µg/mL (≈ 0.266 µM)
- MIC (Staphylococcus aureus [2]): > 100 µg/mL
- MIC (Streptococcus pneumoniae [5]): 0.2 µg/mL (≈ 0.266 µM)
- MIC (Enterococcus faecium [6]): 0.05 µg/mL (≈ 0.0664 µM)
- MIC (Haemophilus influenzae): 25 µg/mL (≈ 33.2 µM)
- MIC (Streptococcus pneumoniae [7]): > 100 µg/mL
- MIC (Staphylococcus aureus [1]): 0.2 µg/mL (≈ 0.266 µM)
- MIC (Staphylococcus aureus [3]): 0.39 µg/mL (≈ 0.518 µM)
- MIC (Staphylococcus aureus [8]): 0.39 µg/mL (≈ 0.518 µM)
- ED50 (Mus musculus [9]): 15.4 mg/kg
- MIC (Enterococcus faecalis [10]): 0.2 µg/mL (≈ 0.266 µM)

Structure (SMILES): CC[C@H]1OC(=O)[C@H](C)[C@@H](O[C@H]2C[C@@](C)(OC)[C@@H](O)[C@H](C)O2)[C@H](C)[C@@H](O[C@@H]2O[C@H](C)C[C@H](N(C)C)[C@H]2O)[C@](C)(OC)C[C@@H](C)C(=O)[C@H](C)[C@@H](O)[C@]1(C)O [CLARITHROMYCIN]
- MIC (Streptococcus pneumoniae [4]): 1.56 µg/mL (≈ 2.09 µM)
- MIC (Streptococcus pneumoniae [5]): 0.05 µg/mL (≈ 0.0668 µM)
- ED50 (Mus musculus [11]): 7.6 mg/kg
- MIC (Staphylococcus aureus [12]): 0.2 µg/mL (≈ 0.267 µM)
- MIC (Haemophilus influenzae): 6.25 µg/mL (≈ 8.36 µM)
- MIC (Streptococcus pneumoniae [7]): > 100 µg/mL
- MIC (Staphylococcus aureus [13]): > 100 µg/mL
- MIC (Staphylococcus aureus [1]): 0.1 µg/mL (≈ 0.134 µM)
- MIC (Staphylococcus aureus [14]): > 100 µg/mL
- MIC (Enterococcus faecium [15]): 1.56 µg/mL (≈ 2.09 µM)
- MIC (Enterococcus faecalis [10]): 1.56 µg/mL (≈ 2.09 µM)

Structure (SMILES): CC[C@H]1OC(=O)[C@H](C)[C@@H](O[C@H]2C[C@@](C)(OC)[C@@H](O)[C@H](C)O2)[C@H](C)[C@@H](O[C@@H]2O[C@H](C)C[C@H](N(C)C)[C@H]2O)[C@](C)(O)C[C@@H](C)C(=O)[C@H](C)[C@@H](O)[C@]1(C)O [ERYTHROMYCIN]
- MIC (Streptococcus pneumoniae [4]): 1.56 µg/mL (≈ 2.13 µM)
- MIC (Staphylococcus aureus [16]): 0.2 µg/mL (≈ 0.273 µM)
- MIC (Streptococcus pneumoniae [17]): > 100 µg/mL
- MIC (Enterococcus faecium [18]): 1.56 µg/mL (≈ 2.13 µM)
- ED50 (Staphylococcus aureus [19]): 56.6 mg/kg
- MIC (Haemophilus influenzae): 6.25 µg/mL (≈ 8.52 µM)
- MIC (Streptococcus pneumoniae [20]): 0.1 µg/mL (≈ 0.136 µM)
- MIC (Enterococcus faecalis [21]): 3.13 µg/mL (≈ 4.26 µM)
